Data from PubChem BioAssay (NCI).
Values joined by “and” are separate entries in the source; they are usually repeats but may differ in a detail not shown here. Equal entries are not always repeated.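 Briefly, cells in 96-well plates were exposed to five compound concentrations for 48 h, and endpoints were estimated by linear interpolation. The concentration for 50% growth inhibition is given as GI50. TGI: concentration producing complete growth inhibition.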

What was measured:
Experiment in all cases: inhibition of tumour cell growth, NCI panel, 48 h
SF-295 CNS = test system: SF-295 CNS
A498 renal = test system: A498 renal
K-562 leukemia = test system: K-562 leukemia
BT-549 breast = test system: BT-549 breast
MDA-MB-231 breast = test system: MDA-MB-231 breast
HL-60(TB) leukemia = test system: HL-60(TB) leukemia
LOX IMVI melanoma = test system: LOX IMVI melanoma
PC-3 prostate = test system: PC-3 prostate
HT29 colon = test system: HT29 colon
MALME-3M melanoma = test system: MALME-3M melanoma

Compound | GI50 (SF-295 CNS) | TGI (SF-295 CNS) | GI50 (A498 renal) | TGI (A498 renal) | GI50 (K-562 leukemia) | TGI (K-562 leukemia) | GI50 (BT-549 breast) | TGI (BT-549 breast) | GI50 (MDA-MB-231 breast) | TGI (MDA-MB-231 breast) | GI50 (HL-60(TB) leukemia) | TGI (HL-60(TB) leukemia) | GI50 (LOX IMVI melanoma) | TGI (LOX IMVI melanoma) | GI50 (PC-3 prostate) | TGI (PC-3 prostate) | GI50 (HT29 colon) | TGI (HT29 colon) | GI50 (MALME-3M melanoma) | TGI (MALME-3M melanoma)
Cc1c[nH]c(=O)n(Cc2nnc(CCC(=O)c3nc4ccccc4[nH]3)o2)c1=O | 728 nM | 9.48 µM | 296 nM | 3.89 µM | 1030 nM | > 100 µM | 717 nM | 48.7 µM | 671 nM | > 53 µM | 966 nM | > 100 µM | 439 nM | > 100 µM | 477 nM | > 100 µM | 194 nM | > 43.1 µM | 1140 nM | > 100 µM
O=c1oc2ccc(Cl)cc2c(=O)n1-c1ccc(F)cc1F | 1760 nM | 3.55 µM | 372 nM | 1.68 µM | 2030 nM | > 100 µM | 1090 nM | 5.89 µM | 2060 nM | 8.2 µM | 1880 nM | 4.93 µM | 2400 nM | 12.1 µM | 1070 nM | 4.03 µM | 3520 nM | 38.8 µM | 1110 nM | 5.38 µM
CCOC(=O)c1c2c(n3ccc(NC(=O)CCN4CCCCC4)cc13)C(=O)c1ncccc1C2=O | 121 nM | 1.92 µM | 806 nM | 29 µM | 117 nM | 2.57 µM | 4100 nM | 21.4 µM | 1790 nM | 3.77 µM | 1460 nM | 3.46 µM | 301 nM | 0.777 µM | 1200 nM | 2.63 µM | 1300 nM | 3.1 µM | 1160 nM | 2.73 µM
O=C1c2ccccc2C(=O)c2c1oc1c2c(=O)[nH]c2ccc(Cl)cc21 | 637 nM | 2.29 µM | 214 nM | 0.959 µM | 375 nM | 2.01 µM | 304 nM | 1.31 µM | 165 nM | 0.519 µM | 1700 nM | 5.25 µM | 321 nM | 1.3 µM | 182 nM | 0.46 µM | 3700 nM | 12.9 µM | 226 nM | 0.441 µM
CN(/N=C/c1ccccc1O)c1ccc2ccccc2n1 |  | 30.4 µM |  | 38.8 µM |  | > 100 µM |  | 61.1 µM |  | > 100 µM |  | > 100 µM |  | > 100 µM |  | 34.3 µM |  | 90.1 µM |  | 47.8 µM
O=C1/C(=C/c2ccc(F)cc2)CN(C(=O)C(Cl)Cl)C/C1=C\c1ccc(F)cc1 | 230 nM | 0.67 µM | 404 nM | 1.54 µM | 53.3 nM | > 100 µM | 253 nM | 0.81 µM | 323 nM | 1.09 µM | 229 nM | 1.55 µM | 34.6 nM | 0.0974 µM | 250 nM | 0.818 µM | 181 nM |  | 212 nM | 0.528 µM
Cc1nc2ccccc2c(/C=C/c2ccccc2)c1C(=O)/C=C/c1ccc(C(F)(F)F)cc1 | 1670 nM | 3.1 µM | 1750 nM | 3.18 µM | 775 nM | > 100 µM | 1250 nM | 2.89 µM | 1650 nM | 3.38 µM | 1700 nM | 5.28 µM | 1090 nM | 2.34 µM | 1550 nM | 5.02 µM | 632 nM | 4.46 µM | 1710 nM | 3.18 µM
O=C(Nc1cn[nH]c1-c1nc2ccc(CN3CCOCC3)cc2[nH]1)NC1CC1 | 195 nM and 1090 nM | 1.5 µM and 4.67 µM | 373 nM | 3.91 µM | 543 nM and 1590 nM | > 100 µM | 385 nM and 963 nM | 2.13 µM and > 10 µM | 1180 nM and 1480 nM | 10.3 µM and > 10 µM | 1940 nM and 7380 nM | 5.15 µM and > 10 µM | 324 nM and 604 nM | 1.88 µM and > 10 µM | 957 nM and 4290 nM | 36.2 µM and > 10 µM | 272 nM and 2220 nM | 4.71 µM and > 10 µM | 3050 nM and > 10000 nM | 8.32 µM and > 10 µM
C#Cc1cccc(NC(=O)c2cccc(NC(=O)CCl)c2)c1 | 51100 nM | > 82.5 µM | 6140 nM | > 82.5 µM | 7740 nM | > 82.5 µM | 17800 nM | 70.4 µM | 16000 nM | 37.2 µM | 13200 nM | 39.7 µM | 8870 nM | 21.7 µM | 18900 nM | 70.7 µM | 8180 nM | 33.4 µM | 15700 nM | 41.5 µM
O=C(O)CN1C(=O)CN=C(c2ccccn2)c2cc(Cl)ccc21 |  | > 100 µM |  | > 100 µM |  | > 100 µM |  | > 100 µM |  | > 100 µM |  | 22.9 µM |  | > 100 µM |  | > 100 µM |  | > 100 µM |  | > 100 µM
S=C1SCN(Cc2ccccc2)CN1Cc1ccccc1 | 24400 nM | > 90 µM | 15500 nM | 43.6 µM | 1150 nM | 9 µM | 6510 nM | 33.4 µM | 3040 nM | 10.1 µM | 1170 nM | 3.83 µM | 3000 nM | 15 µM | 3360 nM | 15.6 µM | 3890 nM | 15.1 µM | 8750 nM | 26.7 µM
O=C(Nc1ccccc1Cl)c1ccc(NC2=C(Cl)C(=O)N(C3CCCCC3)C2=O)cc1 | 26400 nM | 68.1 µM | 40600 nM | 157 µM | 2880 nM | 17.9 µM | 20700 nM | 47.1 µM | 13700 nM | 33.3 µM | 3380 nM | 8.48 µM | 1680 nM | 20.9 µM | 13600 nM | 45.5 µM | 10800 nM | 30 µM | 20500 nM | 51.2 µM
CCCCc1n(Cc2ccc3ccccc3n2)cc[n+]1Cc1ccc2ccccc2n1 | 2450 nM | 9.88 µM | 3010 nM | 12.9 µM | 621 nM | 12.3 µM | 970 nM | 5.86 µM | 1770 nM | 9.35 µM | 295 nM | 1.11 µM | 1520 nM | 4.67 µM | 1510 nM | 10.6 µM | 801 nM | 7.89 µM | 946 nM | 7.03 µM
